Literature values in PubChem BioAssay AID1259409 (Chemical Carcinogenesis Research Information System (CCRIS), 2018).

System: rodent chemically induced tumor inhibition, incidence and multiplicity
Assay: CCRIS tumor inhibitor studies

## COc1cc(/C=C/C(=O)CC(=O)/C=C/c2ccc(O)c(OC)c2)ccc1O
Carcinogen: 7,12-DIMETHYLBENZ[A]ANTHRACENE, 57-97-6, Dose [Inhibitor]: 10 UMOL IN MINERAL OIL APPLIED TO BUCCAL POUCH 3/WK BEGINNING 2 D AFTER LAST CARCINOGEN DOSE (STUDY DURATION: 24 WK), Route [Inhibitor]: MUCOUS MEMBRANE, Species: HAMSTER, Strain/Sex: SYRIAN/MALE, Target Tissue: Type of Lesion: BUCCAL POUCH: PAPILLOMA, Dose [Carcinogen]: 0.5% IN MINERAL OIL APPLIED TO BUCCAL POUCH 3'/WK FOR 6 WK, Promoter: NONE USED
  tumour outcome (control, treated, inhibition, significance): 21/26 (80.7%), 20/26 (76.9%), 4.71%, not significant
Carcinogen: 7,12-DIMETHYLBENZ[A]ANTHRACENE, 57-97-6, Dose [Inhibitor]: 10 UMOL IN MINERAL OIL APPLIED TO BUCCAL POUCH 3/WK BEGINNING 2 D AFTER LAST CARCINOGEN DOSE (STUDY DURATION: 24 WK), Route [Inhibitor]: MUCOUS MEMBRANE, Species: HAMSTER, Strain/Sex: SYRIAN/MALE, Target Tissue: Type of Lesion: BUCCAL POUCH: SQUAMOUS CELL CARCINOMA, Dose [Carcinogen]: 0.5% IN MINERAL OIL APPLIED TO BUCCAL POUCH 3'/WK FOR 6 WK, Promoter: NONE USED
  tumour outcome (control, treated, inhibition, significance): 20/26 (76.9%), 13/26 (50%), 35%, p< 0.05
Carcinogen: 7,12-DIMETHYLBENZ[A]ANTHRACENE, 57-97-6, Dose [Inhibitor]: 10 UMOL IN MINERAL OIL APPLIED TO BUCCAL POUCH 3/WK BEGINNING 2 D AFTER LAST CARCINOGEN DOSE (STUDY DURATION: 24 WK), Route [Inhibitor]: MUCOUS MEMBRANE, Species: HAMSTER, Strain/Sex: SYRIAN/MALE, Target Tissue: Type of Lesion: BUCCAL POUCH: TUMOR, Dose [Carcinogen]: 0.5% IN MINERAL OIL APPLIED TO BUCCAL POUCH 3'/WK FOR 6 WK, Promoter: NONE USED
  tumour outcome (control, treated, inhibition, significance): 24/26 (92.3%), 20/26 (76.9%), 16.7%, not significant
Carcinogen: 7,12-Dimethylbenzanthracene, 57-97-6, Dose [Inhibitor]: 1% as turmeric (equivalent to 0.05% curcumin) in diet, starting 15 d before carcinogen application to 12 wks after carci, Route [Inhibitor]: Diet, Species: Hamster, Strain/Sex: Syrian golden/Male, Target Tissue: Type of Lesion: Buccal (oral) tissues: Tumor, Dose [Carcinogen]: 0.5% in 0.1 ml oil 3 x wk for 12 wk, study duration 12 wk, Promoter: None
  tumour outcome (control, treated, inhibition, significance): 100%, 55%, 45% at 12 wks (from table)
Carcinogen: AZOXYMETHANE, 25843-45-2, Dose [Inhibitor]: 0, 0.5% COMMERCIAL GRADE CURCUMIN IN DIET FOR 35 WK BEGINNING 2 WK PRIOR TO CARCINOGEN TREATMENT (STUDY DURATION: 35 WK), Route [Inhibitor]: ORAL, Species: MOUSE, Strain/Sex: CF-1/FEMALE, Target Tissue: Type of Lesion: COLON: ADENOCARCINOMA, Dose [Carcinogen]: 10 MG/KG BW IN 100 µL NORMAL SALINE 1/WK FOR 6 WK, Promoter: NONE USED
  tumour outcome (control, treated, inhibition, significance): 40%, 22%, 45%, not significant
Carcinogen: AZOXYMETHANE, 25843-45-2, Dose [Inhibitor]: 0, 0.5% COMMERCIAL GRADE CURCUMIN IN DIET FOR 35 WK BEGINNING 2 WK PRIOR TO CARCINOGEN TREATMENT (STUDY DURATION: 35 WK), Route [Inhibitor]: ORAL, Species: MOUSE, Strain/Sex: CF-1/FEMALE, Target Tissue: Type of Lesion: COLON: ADENOMA, Dose [Carcinogen]: 10 MG/KG BW IN 100 µL NORMAL SALINE 1/WK FOR 6 WK, Promoter: NONE USED
  tumour outcome (control, treated, inhibition, significance): 93%, 69%, 26%, not significant
Carcinogen: AZOXYMETHANE, 25843-45-2, Dose [Inhibitor]: 0, 2% COMMERCIAL GRADE CURCUMIN IN DIET FOR 9 WK BEGINNING 2 WK PRIOR TO CARCINOGEN TREATMENT (STUDY DURATION: 35 WK), Route [Inhibitor]: ORAL, Species: MOUSE, Strain/Sex: CF-1/FEMALE, Target Tissue: Type of Lesion: COLON: ADENOCARCINOMA, Dose [Carcinogen]: 10 MG/KG BW IN 100 µL NORMAL SALINE 1/WK FOR 6 WK, Promoter: NONE USED
  tumour outcome (control, treated, inhibition, significance): 40%, 9%, 78%, not significant
Carcinogen: AZOXYMETHANE, 25843-45-2, Dose [Inhibitor]: 0, 2% COMMERCIAL GRADE CURCUMIN IN DIET FOR 9 WK BEGINNING 2 WK PRIOR TO CARCINOGEN TREATMENT (STUDY DURATION: 35 WK), Route [Inhibitor]: ORAL, Species: MOUSE, Strain/Sex: CF-1/FEMALE, Target Tissue: Type of Lesion: COLON: ADENOMA, Dose [Carcinogen]: 10 MG/KG BW IN 100 µL NORMAL SALINE 1/WK FOR 6 WK, Promoter: NONE USED
  tumour outcome (control, treated, inhibition, significance): 93%, 61%, 34%, not significant
Carcinogen: AZOXYMETHANE, 25843-45-2, Dose [Inhibitor]: 0, 2% COMMERCIAL GRADE CURCUMIN IN DIET FOR 26 WK BEGINNING 1 WK POST CARCINOGEN TREATMENT (STUDY DURATION: 35 WK), Route [Inhibitor]: ORAL, Species: MOUSE, Strain/Sex: CF-1/FEMALE, Target Tissue: Type of Lesion: COLON: ADENOCARCINOMA, Dose [Carcinogen]: 10 MG/KG BW IN 100 µL NORMAL SALINE 1/WK FOR 6 WK, Promoter: NONE USED
  tumour outcome (control, treated, inhibition, significance): 40%, 24%, 40%, not significant
Carcinogen: AZOXYMETHANE, 25843-45-2, Dose [Inhibitor]: 0, 2% COMMERCIAL GRADE CURCUMIN IN DIET FOR 26 WK BEGINNING 1 WK POST CARCINOGEN TREATMENT (STUDY DURATION: 35 WK), Route [Inhibitor]: ORAL, Species: MOUSE, Strain/Sex: CF-1/FEMALE, Target Tissue: Type of Lesion: COLON: ADENOMA, Dose [Carcinogen]: 10 MG/KG BW IN 100 µL NORMAL SALINE 1/WK FOR 6 WK, Promoter: NONE USED
  tumour outcome (control, treated, inhibition, significance): 93%, 85%, 9%, not significant
Carcinogen: AZOXYMETHANE, 25843-45-2, Dose [Inhibitor]: 0, 2% COMMERCIAL GRADE CURCUMIN IN DIET FOR 35 WK BEGINNING 2 WK PRIOR TO CARCINOGEN TREATMENT (STUDY DURATION: 35 WK), Route [Inhibitor]: ORAL, Species: MOUSE, Strain/Sex: CF-1/FEMALE, Target Tissue: Type of Lesion: COLON: ADENOCARCINOMA, Dose [Carcinogen]: 10 MG/KG BW IN 100 µL NORMAL SALINE 1/WK FOR 6 WK, Promoter: NONE USED
  tumour outcome (control, treated, inhibition, significance): 40%, 0%, 100%, not significant
Carcinogen: AZOXYMETHANE, 25843-45-2, Dose [Inhibitor]: 0, 2% COMMERCIAL GRADE CURCUMIN IN DIET FOR 35 WK BEGINNING 2 WK PRIOR TO CARCINOGEN TREATMENT (STUDY DURATION: 35 WK), Route [Inhibitor]: ORAL, Species: MOUSE, Strain/Sex: CF-1/FEMALE, Target Tissue: Type of Lesion: COLON: ADENOMA, Dose [Carcinogen]: 10 MG/KG BW IN 100 µL NORMAL SALINE 1/WK FOR 6 WK, Promoter: NONE USED
  tumour outcome (control, treated, inhibition, significance): 93%, 68%, 27%, not significant
Carcinogen: AZOXYMETHANE, 25843-45-2, Dose [Inhibitor]: 0, 2% PURE CURCUMIN IN DIET FOR 35 WK BEGINNING 2 WK PRIOR TO CARCINOGEN TREATMENT (STUDY DURATION: 35 WK), Route [Inhibitor]: ORAL, Species: MOUSE, Strain/Sex: CF-1/FEMALE, Target Tissue: Type of Lesion: COLON: ADENOCARCINOMA, Dose [Carcinogen]: 10 MG/KG BW IN 100 µL NORMAL SALINE 1/WK FOR 6 WK, Promoter: NONE USED
  tumour outcome (control, treated, inhibition, significance): 40%, 14%, 65%, not significant
Carcinogen: AZOXYMETHANE, 25843-45-2, Dose [Inhibitor]: 0, 2% PURE CURCUMIN IN DIET FOR 35 WK BEGINNING 2 WK PRIOR TO CARCINOGEN TREATMENT (STUDY DURATION: 35 WK), Route [Inhibitor]: ORAL, Species: MOUSE, Strain/Sex: CF-1/FEMALE, Target Tissue: Type of Lesion: COLON: ADENOMA, Dose [Carcinogen]: 10 MG/KG BW IN 100 µL NORMAL SALINE 1/WK FOR 6 WK, Promoter: NONE USED
  tumour outcome (control, treated, inhibition, significance): 93%, 62%, 33%, not significant
